Laboratory results as given in patent US20240148745A1, “COMPOUNDS FOR USE IN PROGRESSIVE MULTIPLE SCLEROSIS” (FONDAZIONE CENTRO SAN RAFFAELE, priority 2021, published 2024).

What was measured:
[1] = tested on: rat oligodendrocyte progenitor CG4 line; test: Differentiation assay on rat oligodendrocyte progenitor CG4 line (HCS, mCherry+); type: cell-based; details: secondary screen of 49 selected compounds, 1 μM, 5 days
Procedure, shortened: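 Double-reporter CG4 cells (mCherry in mature oligodendrocytes, EGFP in all lineage stages) proliferated 24 h, then given compounds at 1 μM for 5 days of differentiation, ⅔ medium changed at day 3. 9cis-RA as positive control, basal medium and 0.1% DMSO as negative; triplicates imaged by HCS, 35 fields/well.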

[2] = tested on: human iPS-derived neuroprecursors; test: Differentiation of human iPS-derived neuroprecursors into MBP+ oligodendrocytes; type: cell-based; details: 1 μM in minimal medium, p<0.05
Procedure, shortened: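 Human iPS-derived NPCs with doxycycline-inducible SOX10/OLIG2/NKX6.2 were differentiated, replated on day 7, then treated in minimal medium with compound at 1 μM (DMSO vehicle negative control, 60 ng/mL T3 positive control) until fixation on day 21. MBP+ cells were counted manually by immunocytochemistry against DAPI-counted nuclei.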

SMILES	CG4 differentiation compared with 9cis-RA positive control [1]	differentiation into MBP+ oligodendrocytes [2]	differentiation into MBP+ oligodendrocytes ([2]; Hydrochloride)
O=C(c1ccc(CN2CCOCC2)cc1)N1CCN(C2CC2)CC1 [Bavisant]	promoting differentiation significantly higher than 9cis-RA positive control	promote significantly (p<0.05) the differentiation into MBP+ oligodendrocytes	
CC(=O)N1CCN([C@H]2CCN(C(=O)N(C)[C@H](C)c3cc(C(F)(F)F)cc(C(F)(F)F)c3)[C@@H](c3ccc(F)cc3C)C2)CC1 [Casopitant]	promoting differentiation significantly higher than 9cis-RA positive control	promote significantly (p<0.05) the differentiation into MBP+ oligodendrocytes	
CCOC(=O)[C@@H](N)CCC(=O)N[C@@H](CSCc1ccccc1)C(=O)N[C@@H](C(=O)OCC)c1ccccc1.Cl [Ezatiostat hydrochloride, Ezatiostat Hydrochloride]	promoting differentiation significantly higher than 9cis-RA positive control		promote significantly (p<0.05) the differentiation into MBP+ oligodendrocytes
C[C@H](Nc1cc(-c2cnn(C)c2)cc(Nc2cnccn2)n1)c1ccc(F)cc1 [NS-018]	promoting differentiation significantly higher than 9cis-RA positive control	promote significantly (p<0.05) the differentiation into MBP+ oligodendrocytes	
NCCCC[C@H](NC(=O)[C@@H](Cc1cc(Br)c(O)c(Br)c1)NC(=O)N1CCC(N2Cc3ccccc3NC2=O)CC1)C(=O)N1CCN(c2ccncc2)CC1 [Olcegepant]	promoting differentiation significantly higher than 9cis-RA positive control	promote significantly (p<0.05) the differentiation into MBP+ oligodendrocytes	
O=C(NOC[C@H](O)CO)c1ccc(F)c(F)c1Nc1ccc(I)cc1F [PD-0325901]	promoting differentiation significantly higher than 9cis-RA positive control	promote significantly (p<0.05) the differentiation into MBP+ oligodendrocytes	
CC(=O)[C@H]1CC[C@H]2[C@@H]3CCC4=CC(=O)CC[C@]4(C)[C@H]3CC[C@]12C [Progesterone]	promoting differentiation significantly higher than 9cis-RA positive control	promote significantly (p<0.05) the differentiation into MBP+ oligodendrocytes	
CC1(C)CCC(C)(C)c2cc(NC(=O)c3ccc(C(=O)O)cc3)ccc21 [Tamibarotene]	promoting differentiation significantly higher than 9cis-RA positive control		
